For 19 molecules, T/C results are on record in PubChem BioAssay AID248 (DTP/NCI, 2004).

The subject of the experiment is L1210 leukemia ip in BDF1 mice, survival T/C. Description: NCI In Vivo Anticancer Drug Screen. Data for tumor model L1210 Leukemia (intraperitoneal) in B6D2F1 (BDF1) mice. The following applies: endpoint: mean survival time, higher = longer survival. The method, boiled down:
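Mice bearing the transplanted tumor received compound or vehicle. Survival of the treated group was divided by that of the vehicle-treated control group to give the ratio.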

The mark [1] stands for this setting: dose: 100.0 mg/kg/injection, schedule: Q04DX003 (ip), vehicle: saline.
The mark [2] stands for this setting: dose: 200.0 mg/kg/injection, schedule: Q04DX003 (ip), vehicle: saline.
Where [3] appears, read: dose: 100.0 mg/kg/injection, schedule: Q01DX009 (ip), vehicle: Klucel (hydroxypropylcellulose) (HPC).
The mark [4] stands for this setting: dose: 100.0 mg/kg/injection, schedule: Q04DX003 (ip), vehicle: Klucel (hydroxypropylcellulose) (HPC).
The mark [5] stands for this setting: dose: 200.0 mg/kg/injection, schedule: Q01DX009 (ip), vehicle: Klucel (hydroxypropylcellulose) (HPC).
Setting [6] is: dose: 200.0 mg/kg/injection, schedule: Q04DX003 (ip), vehicle: Klucel (hydroxypropylcellulose) (HPC).
The mark [7] stands for this setting: dose: 400.0 mg/kg/injection, schedule: Q01DX009 (ip), vehicle: Klucel (hydroxypropylcellulose) (HPC).
Setting [8] is: dose: 400.0 mg/kg/injection, schedule: Q04DX003 (ip), vehicle: Klucel (hydroxypropylcellulose) (HPC).
Where [9] appears, read: dose: 100.0 mg/kg/injection, schedule: Q01DX001 (ip), vehicle: Klucel (hydroxypropylcellulose) (HPC).
[10] abbreviates: dose: 200.0 mg/kg/injection, schedule: Q01DX001 (ip), vehicle: Klucel (hydroxypropylcellulose) (HPC).
Where [11] appears, read: dose: 100.0 mg/kg/injection, schedule: Q04DX003 (ip), vehicle: saline with Tween-80.
The mark [12] stands for this setting: dose: 200.0 mg/kg/injection, schedule: Q04DX003 (ip), vehicle: saline with Tween-80.

Inconclusive results and toxic doses are left out.

Turning to `N#Cc1[nH]cnc1[N+]#N`, the T/C was 103 % of control (dose: 3.0 mg/kg/injection, schedule: Q01DX009 (ip), vehicle: saline with Tween-80); 108 % of control (dose: 3.0 mg/kg/injection, schedule: Q04DX003 (ip), vehicle: other); 105 % of control (dose: 6.0 mg/kg/injection, schedule: Q01DX009 (ip), vehicle: saline with Tween-80); 103 % of control (dose: 6.0 mg/kg/injection, schedule: Q04DX003 (ip), vehicle: other); 91 % of control (dose: 12.0 mg/kg/injection, schedule: Q01DX009 (ip), vehicle: saline with Tween-80); 108 % of control (dose: 12.0 mg/kg/injection, schedule: Q04DX003 (ip), vehicle: other). Further, where the note is “dose: 12.5 mg/kg/injection, schedule: Q01DX001 (ip), vehicle: other”, the T/C is 94 % of control.

As for `CCCCCCCCCCCCCCCCCC(=O)C(C(=O)OCC)C(=O)OCC`, the T/C (dose: 100.0 mg/kg/injection, schedule: Q01DX001 (ip), vehicle: other) was 93 % of control; the T/C (dose: 200.0 mg/kg/injection, schedule: Q01DX001 (ip), vehicle: other) is 88 % of control; the T/C (dose: 400.0 mg/kg/injection, schedule: Q01DX001 (ip), vehicle: other) was 90 % of control.

For the molecule `Oc1ccc(C2CC3CCC2C3)cc1` (stereo unspecified), the T/C runs as follows: (dose: 100.0 mg/kg/injection, schedule: Q04DX003 (ip), vehicle: saline + alcohol) 98 % of control; (dose: 200.0 mg/kg/injection, schedule: Q04DX003 (ip), vehicle: saline + alcohol) 90 % of control; (dose: 400.0 mg/kg/injection, schedule: Q04DX003 (ip), vehicle: saline + alcohol) 96 % of control.

For `CCC(C)C(CCCCN1CCCC1)(CNC(=O)CN(CC)CC)c1cccc2ccccc12` (stereo unspecified), the T/C by setting is: (dose: 12.5 mg/kg/injection, schedule: Q01DX009 (ip), vehicle: saline) 95 % of control; (dose: 12.5 mg/kg/injection, schedule: Q04DX003 (ip), vehicle: saline) 92 % of control; (dose: 25.0 mg/kg/injection, schedule: Q01DX009 (ip), vehicle: saline) 101 % of control; (dose: 25.0 mg/kg/injection, schedule: Q04DX003 (ip), vehicle: saline) 93 % of control; (dose: 50.0 mg/kg/injection, schedule: Q01DX009 (ip), vehicle: saline) 106 % of control; (dose: 50.0 mg/kg/injection, schedule: Q04DX003 (ip), vehicle: saline) 92 % of control.

On to `CC(=O)Nc1ccc(N)c(NC(C)=O)n1`, for which the T/C was 97 % of control under setting [1]; 95 % of control under setting [2]; 109 % of control (dose: 400.0 mg/kg/injection, schedule: Q04DX003 (ip), vehicle: saline).

As for `CC(=O)NCc1cc(C)c(C)cc1C`, the T/C by setting is: under setting [3], 100 % of control; under setting [4], 101 % of control; under setting [5], 104 % of control; under setting [6], 97 % of control; under setting [7], 96 % of control; under setting [8], 109 % of control.

`O=NN(CCCl)C(=O)Nc1ccc(Cn2ccc(=O)[nH]c2=O)cc1`: the T/C was 164 % of control (dose: 18.0 mg/kg/injection, schedule: Q01DX001 (ip), vehicle: carboxymethylcellulose (CMC)); 185 % of control (dose: 23.0 mg/kg/injection, schedule: Q01DX001 (ip), vehicle: carboxymethylcellulose (CMC)); 152 % of control (dose: 26.0 mg/kg/injection, schedule: Q01DX001 (ip), vehicle: carboxymethylcellulose (CMC)); 189 % of control (dose: 31.0 mg/kg/injection, schedule: Q01DX001 (ip), vehicle: carboxymethylcellulose (CMC)); 178 % of control (dose: 40.0 mg/kg/injection, schedule: Q01DX001 (ip), vehicle: carboxymethylcellulose (CMC)); 179 % of control (dose: 46.0 mg/kg/injection, schedule: Q01DX001 (ip), vehicle: carboxymethylcellulose (CMC)). For the same molecule, the T/C reads like this: (dose: 60.0 mg/kg/injection, schedule: Q01DX001 (ip), vehicle: carboxymethylcellulose (CMC)) 200 % of control; (dose: 62.0 mg/kg/injection, schedule: Q01DX001 (ip), vehicle: carboxymethylcellulose (CMC)) 167 % of control; (dose: 90.0 mg/kg/injection, schedule: Q01DX001 (ip), vehicle: carboxymethylcellulose (CMC)) 207 % of control; (dose: 125.0 mg/kg/injection, schedule: Q01DX001 (ip), vehicle: carboxymethylcellulose (CMC)) 107 % of control; (dose: 187.0 mg/kg/injection, schedule: Q01DX001 (ip), vehicle: carboxymethylcellulose (CMC)) 93 % of control.

`COc1ccccc1N=Nc1c(O)n(-c2ccc(C)cc2)c(=S)n(-c2ccccc2)c1=O`: the T/C is 94 % of control (dose: 50.0 mg/kg/injection, schedule: Q01DX001 (ip), vehicle: Klucel (hydroxypropylcellulose) (HPC)); 87 % of control under setting [9]; 89 % of control under setting [10].

As to `CC1(C)[C@@H]2CC[C@]1(C)[C@@H](O)C2`, the T/C was 104 % of control under setting [9]; 102 % of control under setting [4]; 96 % of control under setting [10]; 102 % of control under setting [6]; 93 % of control (dose: 400.0 mg/kg/injection, schedule: Q01DX001 (ip), vehicle: Klucel (hydroxypropylcellulose) (HPC)); 97 % of control under setting [8].

Turning to `O=[N+]([O-])c1ccc2conc2c1`, the T/C is, setting by setting: (dose: 50.0 mg/kg/injection, schedule: Q01DX001 (ip), vehicle: carboxymethylcellulose (CMC)) 94 % of control; (dose: 100.0 mg/kg/injection, schedule: Q01DX001 (ip), vehicle: carboxymethylcellulose (CMC)) 97 % of control; (dose: 200.0 mg/kg/injection, schedule: Q01DX001 (ip), vehicle: carboxymethylcellulose (CMC)) 92 % of control.

With `CC(C)NC(C)Cc1ccccc1` (stereo unspecified), the T/C reads like this: (dose: 25.0 mg/kg/injection, schedule: Q01DX001 (ip), vehicle: saline) 93 % of control; (dose: 50.0 mg/kg/injection, schedule: Q01DX001 (ip), vehicle: saline) 91 % of control.

`Fc1ccc2[nH]c3c(c2c1)C[P+](Cc1cccc2ccccc12)(c1ccccc1)CC3` (stereo unspecified): the T/C runs as follows: under setting [1], 98 % of control; under setting [2], 88 % of control.

Take `COc1ccc(N=C(c2ccccc2)c2ccc([N+](=O)[O-])cc2)cc1`: the T/C runs as follows: under setting [3], 91 % of control; under setting [4], 93 % of control; under setting [5], 101 % of control; under setting [6], 98 % of control; under setting [7], 98 % of control; under setting [8], 98 % of control.

`CCCCSc1n[nH]c(=O)[nH]c1=O`: the T/C runs as follows: (dose: 100.0 mg/kg/injection, schedule: Q01DX001 (ip), vehicle: saline) 113 % of control; (dose: 200.0 mg/kg/injection, schedule: Q01DX001 (ip), vehicle: saline) 92 % of control; (dose: 400.0 mg/kg/injection, schedule: Q01DX001 (ip), vehicle: saline) 95 % of control.

On to `Nc1ccc(CC2=C(Br)CNC(=O)N2)cc1`, for which the T/C runs as follows: under setting [9], 102 % of control; under setting [10], 103 % of control.

On to `Nc1nc(N)c(N=O)c(Nc2ccc(Br)cc2)n1`, for which the T/C is 108 % of control (dose: 60.0 mg/kg/injection, schedule: Q01DX Z (ip), vehicle: methylcellulose (MC)) and 103 % of control (dose: 120.0 mg/kg/injection, schedule: Q01DX Z (ip), vehicle: methylcellulose (MC)).

In the case of `Clc1ccc(NC(Nc2ccc(Cl)c(Cl)c2)C(Cl)(Cl)Cl)cc1Cl`, the T/C is 101 % of control under setting [11] and 90 % of control under setting [12].

For `CCNC(=O)CS(=O)(=O)c1ccc(C)cc1`, the T/C runs as follows: under setting [11], 101 % of control; under setting [12], 94 % of control; (dose: 400.0 mg/kg/injection, schedule: Q04DX003 (ip), vehicle: saline with Tween-80) 97 % of control.

In the case of `O=C(O)c1cccn1-c1cccc2c(-n3cccc3C(=O)O)cccc12`, the T/C (dose: 50.0 mg/kg/injection, schedule: Q04DX002 (ip), vehicle: saline + alcohol) was 99 % of control; the T/C (dose: 100.0 mg/kg/injection, schedule: Q04DX002 (ip), vehicle: saline + alcohol) was 89 % of control; the T/C (dose: 200.0 mg/kg/injection, schedule: Q04DX002 (ip), vehicle: saline + alcohol) was 96 % of control.
